Where two headings read alike, the source gives them in different places.
Experiments:
p7 (5a) protein = p7 (5a) protein (Hepatitis C virus genotype 5a (Hepacivirus hominis), UniProt O39928, A759S/C749A/C774T/C791S/T748G); experiment: NMR titration (2D 1H-15N TROSY-HSQC chemical shift perturbation) for Kd; assay type: binding; settings: for Kd: read-out: Kd GT5a
Huh7.5.1 cells = experiment: CellTiter-Glo cell viability and cytotoxicity assay; settings: 12 h incubation
Experimental: (§1) (B) After incubation with each compound, the cell viability and cytotoxicity were detected by CellTiter-Glo® Luminescent Cell Viability Assay reagent (Promega GS7570, Madison, WI, USA). […] Data were presented as the percentage of mock treatment control. […] Two independent experiments were repeated showing similar results.
(§2) Cell viability and cytotoxicity were detected by CellTiter-Glo® Luminescent Cell Viability Assay reagent (Promega GS7570, Madison, WI, USA). Briefly, Huh7.5.1 cells were seeded at a density of 80,000 cells per well in 24-well microplates and allowed to attach and grow overnight. The next day, the cell-culture media with serially diluted compounds in 0.5% DMSO or mock were added to the cells. After 12 h of incubation, cells were collected and lysed for the cell cytotoxicity assay.

[1] = tested on: HCV (JFH1 strain with adaptive mutations); assay type: cell-based; settings: for viral production kinetics versus mock control: 20 μM, supernatant at 2, 6, 12 and 24 h post-incubation; for IC50 against HCV compared with Rim: Huh7.5.1 cells, JFH1, 12 h
[2] = CellTiter-Glo cell viability and cytotoxicity assay; settings: human, Huh7.5.1 cells
Experimental: as §1, §2

HCV genotype 3 = tested on: HCV genotype 3; set-up: method as in PMID 27783808; settings: cited from earlier work
hepatoma cell lines = tested on: hepatoma cell lines; set-up: method as in PMID 18828153; settings: cited from earlier work
HCV = tested on: HCV; set-up: method as in PMID 18828153; settings: cited from earlier work
[3] = apparent Kd from chemical shift changes of Val7 or Leu8, 0.1 mM 15N-p7 (5a) in 20 mM DPC, 30 °C

p7 (5a) protein, sequence (O39928 748-810 T748G/C749A/A759S/C774T/C791S): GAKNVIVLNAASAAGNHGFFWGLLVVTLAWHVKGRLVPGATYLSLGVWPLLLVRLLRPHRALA

Compound | Kd (p7 (5a) protein; [3]) [µM] | further results
CCNC(C)C12CC3CC(CC(C3)C1)C2 (stereo not shown) [ARD1] | 487 | –
CCC(NC)C12CC3CC(CC(C3)C1)C2 (stereo not shown) [ARD2] | 334 | –
CNC(CO)C12CC3CC(CC(C3)C1)C2 (stereo not shown) [ARD6] | 344 | –
CNC(C(N)=O)C12CC3CC(CC(C3)C1)C2 (stereo not shown) [ARD8] | 707 | –
CNC(=O)C(NC)C12CC3CC(CC(C3)C1)C2 (stereo not shown) [ARD9] | 418 | –
NC(C(F)F)C12CC3CC(CC(C3)C1)C2 (stereo not shown) [ARD71] | 2460 | –
NC(CNC(=O)CCOCCOCCOCCC(=O)NCC(N)C12CC3CC(CC(C3)C1)C2)C12CC3CC(CC(C3)C1)C2 (stereo not shown) [ARD80] | 102 | –
NC(CNC(=O)CCOCCOCCOCCOCCC(=O)NCC(N)C12CC3CC(CC(C3)C1)C2)C12CC3CC(CC(C3)C1)C2 (stereo not shown) [ARD81] | 81 | –
NC(CNC(=O)CCOCCOCCOCCOCCOCCOCCC(=O)NCC(N)C12CC3CC(CC(C3)C1)C2)C12CC3CC(CC(C3)C1)C2 (stereo not shown) [ARD83] | 70 | –
NC(CNC(=O)CCOCCOCCOCCOCCOCCOCCOCCC(=O)NCC(N)C12CC3CC(CC(C3)C1)C2)C12CC3CC(CC(C3)C1)C2 (stereo not shown) [ARD84] | 58 | –
NC(CNC(=O)CCOCCC(=O)NCC(N)C12CC3CC(CC(C3)C1)C2)C12CC3CC(CC(C3)C1)C2 (stereo not shown) [ARD87] | – | cytotoxicity compared with Rim (Huh7.5.1 cells): significantly higher than Rim; Kd (p7 (5a) protein): 43 µM; viral production kinetics versus mock control [1]: suppress the viral production; IC50 against HCV compared with Rim [1]: about two-fold lower than that of Rim
Oc1ccc(CNC23CC4CC(CC(C4)C2)C3)c(O)c1 [ARD89] | 112 | –
OCC1(CNCc2cc(-c3ccccc3)on2)C2CC3CC(C2)CC1C3 (stereo not shown) [ARD98] | 102 | –
Cc1cc(CNCC2(CO)C3CC4CC(C3)CC2C4)ccn1 (stereo not shown) [ARD99] | 852 | –
Cc1ccc(CNCC2(CO)C3CC4CC(C3)CC2C4)cn1 (stereo not shown) [ARD100] | 107 | –
OCC1(CNCc2cc(C3CC3)on2)C2CC3CC(C2)CC1C3 (stereo not shown) [ARD101] | 105 | –
CC1(NCc2nnc(-c3cc(O)cc(O)c3)[nH]2)C2CC3CC(C2)CC1C3 (stereo not shown) [ARD112] | 5 | CC50 at 12 h [2]: > 100 µM; cytotoxicity compared with Rim (Huh7.5.1 cells): comparable to Rim; binding strength relative to the best dimeric compound ARD87 (p7 (5a) protein; from NMR Kd values, p7 (5a)): ~ 10 fold; viral production kinetics versus mock control [1]: suppress the viral production; IC50 against HCV compared with Rim [1]: about two-fold lower than that of Rim
NC12CC3CC(CC(C3)C1)C2 [Amantadine] | – | inhibition of genotype 3 (HCV genotype 3): could not inhibit genotype 3
CC(N)C12CC3CC(CC(C3)C1)C2 (stereo not shown) [Rimantadine, reference compound] | – | cytotoxicity against hepatoma cell lines (hepatoma cell lines): no significant cytotoxicity; anti-HCV activity (HCV): moderate anti-HCV activity; CC50 at 12 h [2]: > 100 µM; Kd (p7 (5a) protein): 98 µM; viral production kinetics versus mock control [1]: suppress the viral production

Source: publication PMC7961618, “Inhibitor Development against p7 Channel in Hepatitis C Virus” (Molecules, 2021)
